Experimental findings from article PMC4735795, “Deciphering the Receptor Repertoire Encoding Specific Odorants by Time-Lapse Single-Cell Array Cytometry” (Scientific Reports, 2016) are described below.

What all share (test): GloSensor cAMP luminescence in HEK293T
Format in all cases: cell-based
What all share (details): agonist; co-expressed Golf alpha and RTP1S; N = 12

One assay addresses T1, Olfr1258 (mOR232-3) (Mus musculus, UniProt Q8VGN6).
T1 construct: gene Or4c10; full-length from mouse genomic DNA in pCI-neo; N-terminal rhodopsin and myc tags; HEK293T with co-transfected Golf alpha, RTP1S and GloSensor-22F

The next assay has as its target T2, Olfr168 (mOR271-1) (Mus musculus, UniProt A0PK36).
T2 construct: full-length from mouse genomic DNA in pCI-neo; N-terminal rhodopsin and myc tags; HEK293T with co-transfected Golf alpha, RTP1S and GloSensor-22F
T2 sequence (A0PK36 1-312): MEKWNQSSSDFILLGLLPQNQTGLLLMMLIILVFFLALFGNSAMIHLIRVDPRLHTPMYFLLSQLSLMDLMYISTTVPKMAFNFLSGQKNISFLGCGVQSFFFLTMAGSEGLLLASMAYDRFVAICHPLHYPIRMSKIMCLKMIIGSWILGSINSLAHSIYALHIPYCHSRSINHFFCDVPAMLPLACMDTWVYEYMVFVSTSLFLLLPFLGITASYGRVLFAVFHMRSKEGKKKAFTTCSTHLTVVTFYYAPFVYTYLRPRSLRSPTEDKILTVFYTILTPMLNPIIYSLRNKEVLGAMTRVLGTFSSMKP

A further assay concerns the target T3, Olfr45 (mOR253-2) (Mus musculus, UniProt A0JLW4).
T3 construct: full-length from mouse genomic DNA in pCI-neo; N-terminal rhodopsin and myc tags; HEK293T with co-transfected Golf alpha, RTP1S and GloSensor-22F
T3 sequence (A0JLW4 1-311): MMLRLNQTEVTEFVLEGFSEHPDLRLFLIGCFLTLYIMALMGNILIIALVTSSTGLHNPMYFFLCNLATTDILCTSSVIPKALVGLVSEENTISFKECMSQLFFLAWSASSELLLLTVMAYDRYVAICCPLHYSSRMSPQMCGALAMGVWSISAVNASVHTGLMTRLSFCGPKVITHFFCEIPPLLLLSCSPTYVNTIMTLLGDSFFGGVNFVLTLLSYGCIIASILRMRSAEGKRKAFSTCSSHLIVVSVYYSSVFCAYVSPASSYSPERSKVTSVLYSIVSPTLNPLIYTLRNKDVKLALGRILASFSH

Another assay deals with T4, Olfr166 (mOR270-1) (Mus musculus, UniProt Q0VEL6).
T4 construct: full-length from mouse genomic DNA in pCI-neo; N-terminal rhodopsin and myc tags; HEK293T with co-transfected Golf alpha, RTP1S and GloSensor-22F
T4 sequence (Q0VEL6 1-312): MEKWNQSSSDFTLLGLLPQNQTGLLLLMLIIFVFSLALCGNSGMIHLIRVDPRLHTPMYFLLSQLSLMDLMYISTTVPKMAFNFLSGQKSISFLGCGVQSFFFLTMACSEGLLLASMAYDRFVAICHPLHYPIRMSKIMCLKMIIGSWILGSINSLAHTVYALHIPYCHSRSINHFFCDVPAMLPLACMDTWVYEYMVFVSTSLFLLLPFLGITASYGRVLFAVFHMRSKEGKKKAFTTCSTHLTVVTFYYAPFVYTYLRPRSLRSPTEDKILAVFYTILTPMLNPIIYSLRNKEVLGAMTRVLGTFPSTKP

T1 sequence (Q8VGN6 1-311): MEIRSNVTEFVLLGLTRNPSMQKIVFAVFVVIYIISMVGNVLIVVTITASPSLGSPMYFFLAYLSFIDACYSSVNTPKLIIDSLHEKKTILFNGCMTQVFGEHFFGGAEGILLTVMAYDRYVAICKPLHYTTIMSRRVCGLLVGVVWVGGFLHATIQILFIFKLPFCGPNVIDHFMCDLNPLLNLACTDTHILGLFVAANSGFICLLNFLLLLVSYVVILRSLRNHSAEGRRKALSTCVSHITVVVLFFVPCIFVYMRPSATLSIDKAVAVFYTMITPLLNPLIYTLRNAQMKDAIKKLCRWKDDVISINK

Regarding `CCC(C)=O` [2-butanone], the “GloSensor cAMP luminescence in HEK293T” value on Olfr1258 (mOR232-3) is on record as “Olfr1258 was activated by 2-butanone”.

In the case of `CCCC(C)=O` [2-pentanone], a half-maximal effect on Olfr168 (mOR271-1) (EC50) was put at 2100 ± 600 µM.

On to `c1ccncc1` [pyridine], for which the “GloSensor cAMP luminescence in HEK293T” value on Olfr45 (mOR253-2) was “both Olfr45 and Olfr166 were activated by pyridine”; at Olfr166 (mOR270-1), “both Olfr45 and Olfr166 were activated by pyridine”.

As usually defined, the EC50 is the concentration needed to bring the measured effect to its halfway point.
